Measured values taken from patent US5846939A, “Use of a decapeptide with benzodiazepine-type activity for preparing medicines and food supplements” (Societe Cooperative Agricole Laitiere D'Artois Et Des …, priority 1994, dated 1998).

Experiments:
[1] = biological target: central benzodiazepine receptor; settings: radioligand of the kit; cited from earlier work
[2] = test system: anxiety in the rat (elevated plus-maze); assay: Tranquilizing activity, elevated plus-maze test; type: in vivo; settings: intraperitoneal, diazepam 2 mg/kg, hydrolysate 3 mg/kg
Source text: To measure anxiety in the rat, the elevated plus-maze test described by Pellow et al. (14) was used which is based on neophobia in the rat. The plus-maze had four branches that were 50 cm long and 10 cm wide. The two closed branches were surrounded by walls that were 25 cm high (the top being left open for observation) and the entire maze was 50 cm above the ground. The center of the maze communicated with the two open arms and the two closed arms.
The number of times the animal enters the open arms, the closed arms, and the total number of times the rat enters the arms are important parameters. The time passed in each type of branch was also measured. Other parameters (a total of 22) such as the number of times the rat stood up, the number of times it groomed itself (signs of anxiety), or latency of first entry into an open or closed branch were taken into account. […] Its entire behavior was filmed by video camera, which procedure served to avoid errors.
The control group (CTR) received an intraperitoneal injection of solvent only, which solvent was a mixture of gelatin and mannitol (0.5%/5%) dissolved in water. […] The animals in all of the groups were injected half an hour before going to the plus-maze. To begin the experiments, each rat was placed in the center of the apparatus.

Structure (SMILES) | Ki [1] | number of entries into closed branches [2] | number of entries into open branches ([2]; control 1.5±0.3) | time spent in the open branches ([2]; control 19.3±4.4 s)
CN1C(=O)CN=C(c2ccccc2F)c2cc([N+](=O)[O-])ccc21 [^3 H-methyl-flunitrazepam] | 1.2 nM |  |  | 
CN1C(=O)CN=C(c2ccccc2)c2cc(Cl)ccc21 [diazepam] |  | did not vary significantly | 3.0±0.4 | 70.1 ± 19.9 s
